These are literature values, as cited in US20120219597A1, “PHARMACEUTICAL FORMULATIONS FOR INDIBULIN” (ZIOPHARM Oncology, Inc., priority 2009, published 2012).

The conditions of data set [1]: pure indibulin.
For data set [2] the following is noted: in water, methanol, ethanol or 2-propanol.

In the case of `O=C(Nc1ccncc1)C(=O)c1cn(Cc2ccc(Cl)cc2)c2ccccc12` [indibulin], in data set [1], the bioavailability result is given as “low”. The solubility result in data set [2] is reported as “practically insoluble”.
